What was measured:
[1] = target: T1, MMP-3 (recombinant stromelysin) (Homo sapiens, UniProt P08254); test: Secondary P218 Quenched fluorescence Assay for MMP-3 Inhibition; format: biochemical
T1 construct: Expression and Purification of Recombinant Truncated Prostromelysin (MMP-3); made in house
Text: Truncated Prostromelysin-257 was expressed in a soluble form in E.coli as described by Marcy et al., Biochemistry, 30, 6476-6483, 1991. Soluble truncated prostromelysin was purified by a modification of the monoclonal antibody affinity chromatography method described by Housley et al., J. Biol. Chem., 268, 4481-87, 1993.
This assay was originally described by Knight et al., FEBS Letters, 296, 263-266, 1992, for a related substrate. The assay is run continuously in a 3.Oml cuvette using a Perkin-Elmer LS 50 B Spectrofluorimeter at 25° C. in a final volume of 2.0 mls. P218 substrate (10 mM) in 100% DMSO is diluted to a final concentration of 2.0 micromolar (μM) into assay buffer: 50 mM MES, pH 6.5 containing 150 mM NaCl, 10 mM CaCl2, 0.005% Brij-35, and 1%(v/v) DMSO. Test compounds(10 mM) in DMSO are diluted in assay buffer at an initial concentration of 10 to 100 micromolar. […] The reaction is initiated by the addition of recombinant stromelysin (MMP-3) at a final concentration of 1.0 nM. Upon peptide cleavage, the fluorescent MCA group was detected using an excitation wavelength of 328 nanometers and an emission wavelength of 393 nanometers. The assay is linear from 0.2 to 5 nM MMP-3 concentration and percent inhibition is calculated as described above for the primary thiopeptilide assay and IC50 values are determined by a linear regression analysis of percent inhibition versus log drug concentration. The peptide sequence of the MCA substrate, hereinafter esignated P218, is shown below:
MCA-Pro-Lys-Pro-Leu-Ala-Leu-DPA-Ala-Arg-NH2 P218
(§1) All IC50 values are expressed as nM. When "I=x %" is shown, x presents the % inhibition at 5 μM. When "x (n)" is shown, x is the erage IC50 value of n separate determinations.

[2] = target: T2, MMP-3 (recombinant truncated stromelysin) (Homo sapiens, UniProt P08254); test: Primary Thiopeptilide MMP-3 Inhibition Assay; format: biochemical; settings: x (n): average IC50 of n separate determinations
T2 construct: made in house; host or cells: E. coli
Experimental: Reaction mixtures for inhibitor studies contained 1 mM Ac-Pro-Leu-Gly-S-Leu-Leu-Gly-o-ethyl thiopeptolide substrate dissolved in HEPES assay buffer pH 6.5, along with 0.5 mM 5,5'-dithio-bis-(nitrobenzoicacid), drug concentrations ranging from 0.5 nM to 5 μM and activated enzyme (10-100 ng) in a total volume of 130 μl. […] Enzyme mediated substrate hydrolysis was corrected for non-enzymatic hydrolysis of the substrate by the subtraction of values from control samples incubated in the absence of enzyme. Drug efficacy was reported as the percent inhibition of enzyme activity calculated as:
Enzyme: recombinant stromelysin expressed in E.coli and purified as described above. […] The protocols for the assay of compounds as stromelysin inhibitors was the same as that used for MMP-9 except that the assay buffer was 50 mM MES, pH 6.5 containing 150mM NaCl, 10 mM CaCl2, 0.005% Brij, and 1% DMSO.
All IC50 values are expressed as nM. […] When "x (n)" is shown, x is the erage IC50 value of n separate determinations.

[3] = target: T3, MMP-9 (Gelatinase-B, 92 kDa) (Homo sapiens, UniProt P14780); test: Thiopeptilide MMP-9 Inhibition Assay; format: biochemical; settings: x (n): average IC50 of n separate determinations
T3 construct: from tissue; host or cells: human polymorphonuclear leukocytes from fresh whole blood (New York Blood Center), PMA-stimulated supernatant, purified
Experimental: MMP-9 was isolated modifying the previously described procedures of Hibbs et al (J. Biol. Chem., 260, 2493-2500, 1984) and Wilhelm et al (J. Biol. Chem., 264, 17213-17221, 1989). Briefly, polymorphonuclear leukocytes (PMN) preparations were isolated as described above from 3 or more units of freshly drawn whole blood obtained from the New York Blood Center (N.Y., N.Y.). Cells were resuspended in phosphate buffered saline (PBS) containing 100 ng/ml phorbol myristate acetate (PMA) in the presence of 50 mM di-isopropylfluorophospate (DFP), 1 μg/ml leupeptin and aprotinin, and 1 mg/ml catalase for 1 hr at 37° C. Supernatants were collected by centrifugation (300×g) and the samples were frozen at -70° C. All chromatographic methods were performed at 4° C. Thawed samples were concentrated 5-fold using an Amicon chamber equipped with a YM-10 membrane. The concentrate was pressure dialyzed against 0.02M Tris-HCl, 0.1M NaCl, 1 mM CaCl2, 1 μM ZnCl2, 0.001 % Brij-35, 0.02% sodium azide (NaN3), pH 7.5 and applied to DEAE ion exchange chromatography resin which was previously equilibrated with the same buffer at a flow rate of 0.4 ml/min. The column was extensively washed with the same buffer and gelatinase was eluted as 4 ml fractions from the column with 0.02M Tris-HCl, 0.5M NaCl, 1 mM CaCl2, 1 μM ZnCl2, 0.001% Brij-35, 0.02% NaN3, pH 7.5. Gelatinase containing fractions were observed by gelatin zymography (see below), loaded onto a gelatin agarose affinity resin and washed with the same buffer. Gelatinase activity was eluted at a flow rate of 1 ml/min from the column as 1 ml fractions with 0.02M Tris-HCl, 1M NaCl, 1 mM CaCl2, 1 μmM ZnCl2, 0.001% Brij-35, 0.02% NaN3, pH 7.5 containing 10% dimethyl sulfoxide (DMSO). The fractions containing gelatinase activity were pooled and dialyzed against 0.005M Tris-HCl, 5 mM NaCl, 0.5 mM CaCl2, 0.1 μM ZnCl2, 0.001% Brij-35, pH 7.4. The protein content associated with material was determined with a micro-BCA assay (Pierce, Rockford, Ill.), lyophilized and reconstituted to a desired working concentration (100 μg/ml).
Progelatinase (10 μg/ml) isolated from human PMNs (described above) was activated with 1 mM 4-aminophenylmercuric acetate (APMA) in 50 mM Tris-HCl, 200 mM NaCl, 5 mM CaCl2, 0.001% Brij-35, pH 7.6 at 37° C. for 16 hr. The activated enzyme was dialyzed against the above buffer to remove APMA. The thiopeptolide spectrophotometric ( Weingarten, H., Feder, J., Anal. Biochem., 147, 437-440, 1985) substrate hydrolysis assay was modified to a micro-assay format. Spectrophotometric analysis of MMP-9 activity required a 1000-fold dilution of activated MMP-9 (10 ng/ml, 0.14 nM) in assay buffer comprised of 50 mM 4-(2-hydroxyethyl)1-piperazine ethane sulfonic acid (HEPES), 0.15M NaCl, 10 mM CaCl2, 0.001% Brij-35, pH 6.5 between 100 and 1000-fold for enzyme assays. Reaction mixtures for inhibitor studies contained 1 mM Ac-Pro-Leu-Gly-S-Leu-Leu-Gly-o-ethyl thiopeptolide substrate dissolved in HEPES assay buffer pH 6.5, along with 0.5 mM 5,5'-dithio-bis-(nitrobenzoicacid), drug concentrations ranging from 0.5 nM to 5 μM and activated enzyme (10-100 ng) in a total volume of 130 μl. The hydrolysis of substrate was monitored at 405 nm using an automated plate reader (Molecular Devices, Menlo Park, Calif.). Enzyme mediated substrate hydrolysis was corrected for non-enzymatic hydrolysis of the substrate by the subtraction of values from control samples incubated in the absence of enzyme. Drug efficacy was reported as the percent inhibition of enzyme activity calculated as:
(Control Values-Treated Values)/Control Values×100
Two way analysis of variance was used to determine significance between individual test groups.
as §1

[4] = fenbufen analogs, literature; cited from earlier work

T1 sequence (P08254 100-274 limits assumed): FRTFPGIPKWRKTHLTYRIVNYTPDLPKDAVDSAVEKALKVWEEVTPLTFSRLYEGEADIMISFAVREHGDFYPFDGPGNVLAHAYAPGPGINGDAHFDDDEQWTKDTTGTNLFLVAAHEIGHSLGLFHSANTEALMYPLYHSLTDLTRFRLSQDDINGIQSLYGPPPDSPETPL
T2 sequence (P08254 100-274 limits assumed): as above
T3 sequence (P14780 107-707 limits assumed): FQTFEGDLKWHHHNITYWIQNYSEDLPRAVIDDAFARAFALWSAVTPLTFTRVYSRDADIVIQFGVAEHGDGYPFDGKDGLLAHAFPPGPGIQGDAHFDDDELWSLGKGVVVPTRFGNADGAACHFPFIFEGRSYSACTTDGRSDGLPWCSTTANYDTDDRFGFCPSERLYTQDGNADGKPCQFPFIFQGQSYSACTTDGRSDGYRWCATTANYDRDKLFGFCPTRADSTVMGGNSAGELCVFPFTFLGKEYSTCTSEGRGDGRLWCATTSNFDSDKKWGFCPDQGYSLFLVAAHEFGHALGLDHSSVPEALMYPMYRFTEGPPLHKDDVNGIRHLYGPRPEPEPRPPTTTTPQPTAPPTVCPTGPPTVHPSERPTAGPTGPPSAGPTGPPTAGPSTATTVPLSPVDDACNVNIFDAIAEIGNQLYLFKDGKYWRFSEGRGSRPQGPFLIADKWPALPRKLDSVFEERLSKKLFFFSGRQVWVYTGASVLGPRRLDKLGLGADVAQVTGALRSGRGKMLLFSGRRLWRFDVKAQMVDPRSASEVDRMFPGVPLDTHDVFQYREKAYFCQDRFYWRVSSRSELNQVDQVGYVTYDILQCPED

In the case of “MCA-Pro-Lys-Pro-Leu-Ala-Leu-DPA-Ala-Arg-NH2 [Example P218, reference compound]”, the “cat/Km value of substrate for MMP-3” value ([1]; pH 6.5) is reported as 56,000 M^-1 sec^-1 and the Km ([1]; pH 6.5, read-out: Km of substrate for MMP-3) is reported as 16 µM.
With `O=C(O)[C@@H]1[C@@H](C(=O)c2ccc(-c3ccc(Cl)cc3)cc2)CC[C@H]1Sc1ccccc1` (single isomer, unassigned) [Example 211, Cyclopentanecarboxylic acid, 2-[(4'-chloro[1,1'-biphenyl]-4-yl)carbonyl]-5-(phenylthio)-, [1S-(1α,2β,5β)]-] the IC50 [2] was 26 nM, the IC50 ([1]; P218 substrate, x (n): average IC50 of n separate determinations, read-out: MMP-3 Fluorogenic IC50) was 12 nM and the IC50 [3] was 25 nM.
In the case of `CC(CC(=O)c1ccc(-c2ccccc2)cc1)C(=O)O` (stereo not shown) [XLVIII], the activity in words [4] is listed as “inactive”.
In the case of `O=C(O)CC(C(=O)c1ccc(-c2ccccc2)cc1)c1ccccc1` (stereo not shown) [LXXVII], the activity in words [4] is listed as “inactive”.

Reference: US5886022A, “Substituted cycloalkanecarboxylic acid derivatives as matrix metalloprotease inhibitors” (priority 1997, dated 1999)
